Data set [1] relates to Rattus norvegicus. Put plainly: Induction of growth hormone level in adult Sprague-Dawley rat blood at 10 mg/kg, po administered as single dose measured immediately by ELISA method (reference value: 12.6+/-4.4 ng/mL). The class given is functional.
Data set [2] has as its system Rattus norvegicus. The data set is described as follows: Induction of growth hormone level in adult Sprague-Dawley rat blood at 10 mg/kg, po administered as single dose measured after 40 mins by ELISA method (reference value: 14.4+/-6.9 ng/mL). It is filed as functional.
Data set [3] deals with Rattus norvegicus. Put plainly: Induction of growth hormone level in Juvenile Sprague-Dawley rat blood at 10 mg/kg, po administered as single dose measured after 1 hr by ELISA method (reference value: 45.2+/-12.5 ng/mL). It is filed as functional.
The test system of data set [4] is Rattus norvegicus. Put plainly: Induction of growth hormone level in Juvenile Sprague-Dawley rat blood by measuring AUC(0 to 40 mins) at 10 mg/kg, po administered as single dose by ELISA method (reference value: 20.2+/-4.3 ng/mL). It is filed as functional, organism-based.
Data set [5] relates to Rattus norvegicus. The data set is described as follows: Induction of growth hormone level in adult Sprague-Dawley rat blood by measuring AUC(0 to 40 mins) at 10 mg/kg, po administered as single dose by ELISA method (reference value: 7.0+/-1.7 ng/mL). The class given is functional, organism-based.
Data set [6] has as its system Rattus norvegicus. The data set is described as follows: Induction of growth hormone level in Juvenile Sprague-Dawley rat blood at 10 mg/kg, po administered as single dose measured after 10 mins by ELISA method (reference value: 23.2+/-5.6 ng/mL). It is filed as functional.
For data set [7], the system named is Rattus norvegicus. The data set is described as follows: Induction of growth hormone level in adult Sprague-Dawley rat blood at 10 mg/kg, po administered as single dose measured after 20 mins by ELISA method (reference value: 4.9+/-1.1 ng/mL). The class given is functional.
Data set [8] concerns Rattus norvegicus. Put plainly: Induction of growth hormone level in Juvenile Sprague-Dawley rat blood at 10 mg/kg, po administered as single dose measured after 4 hrs by ELISA method (reference value: 32.5+/-4.5 ng/mL). It is filed as functional.
For data set [9], the system named is Rattus norvegicus. Put plainly: Induction of growth hormone level in adult Sprague-Dawley rat blood at 10 mg/kg, po administered as single dose measured after 10 mins by ELISA method (reference value: 13.7+/-7.2 ng/mL). The class given is functional.
The subject of data set [10] is Rattus norvegicus. The data set is described as follows: Induction of growth hormone level in Juvenile Sprague-Dawley rat blood at 10 mg/kg, po administered as single dose measured immediately by ELISA method (reference value: 28.5+/-8.7 ng/mL). The class given is functional.
Data set [11] relates to Rattus norvegicus. The data set is described as follows: Induction of growth hormone level in Juvenile Sprague-Dawley rat blood at 10 mg/kg, po administered as single dose measured after 20 mins by ELISA method (reference value: 29.1+/-8.6 ng/mL). The class given is functional.
For data set [12], the system named is Rattus norvegicus. Put plainly: Induction of growth hormone level in Juvenile Sprague-Dawley rat blood at 10 mg/kg, po administered as single dose measured after 2 hrs by ELISA method (reference value: 26.5+/-7.3 ng/mL). The class given is functional.
Data set [13] relates to Rattus norvegicus. Put plainly: Induction of growth hormone level in Juvenile Sprague-Dawley rat blood at 10 mg/kg, po administered as single dose measured after 40 mins by ELISA method (reference value: 40.1+/-11.0 ng/mL). The class given is functional.
Data set [14] relates to Rattus norvegicus. Put plainly: Induction of growth hormone level in Juvenile Sprague-Dawley rat blood at 0.1 mg/kg, po administered as single dose measured after 4 hrs by ELISA method (reference value: 32.5+/-4.5 ng/mL). It is filed as functional.
In data set [15] the test system is Rattus norvegicus. The data set is described as follows: Induction of growth hormone level in adult Sprague-Dawley rat blood at 0.5 mg/kg, po administered as single dose measured after 20 mins by ELISA method (reference value: 4.9+/-1.1 ng/mL). The class given is functional.
Data set [16] can be described thus: Cmax in male Sprague-Dawley rat at 2 mg/kg, po administered as single dose measured after 4 hrs. The class given is ADME, organism-based. Conditions: in vivo.
The test system of data set [17] is Rattus norvegicus. The data set is described as follows: Induction of growth hormone level in adult Sprague-Dawley rat blood at 0.5 mg/kg, po administered as single dose measured after 40 mins by ELISA method (reference value: 14.4+/-6.9 ng/mL). It is filed as functional.
Data set [18] in a line: AUC in male Sprague-Dawley rat at 2 mg/kg, po administered as single dose measured after 4 hrs. It is filed as ADME, organism-based. Particulars: in vivo.
In data set [19] the test system is CHO. The data set is described as follows: Agonist activity at human GHSR expressed in CHO cells at maximum concentration incubated for 60 min by FLIPR assay relative to control. It is filed as cell-based. Conditions: filed as agonist.
Data set [20] can be described thus: Agonist activity at monkey GHSR expressed in CHO cells incubated for 60 min by FLIPR assay. The class given is cell-based. Particulars: Macaca mulatta, 1 h.
Data set [21] in a line: Volume of distribution in male Sprague-Dawley rat at 1 mg/kg, iv administered as single dose measured after 4 hrs. The class given is ADME, organism-based. Conditions: in vivo.
Data set [22] is described as follows: Oral bioavailability in male Sprague-Dawley rat at 2 mg/kg administered as single dose measured after 4 hrs. It is filed as ADME, organism-based. Particulars: in vivo.
For data set [23], the system named is Rattus norvegicus. Put plainly: Induction of growth hormone level in Juvenile Sprague-Dawley rat blood at 0.1 mg/kg, po administered as single dose measured after 20 mins by ELISA method (reference value: 29.1+/-8.6 ng/mL). It is filed as functional.
In data set [24] the test system is Rattus norvegicus. Put plainly: Induction of growth hormone level in adult Sprague-Dawley rat blood by measuring AUC(0 to 40 mins) at 0.5 mg/kg, po administered as single dose by ELISA method (reference value: 7.0+/-1.7 ng/mL). It is filed as functional, organism-based.
The subject of data set [25] is Rattus norvegicus. The data set is described as follows: Induction of growth hormone level in Juvenile Sprague-Dawley rat blood at 0.1 mg/kg, po administered as single dose measured after 10 mins by ELISA method (reference value: 23.2+/-5.6 ng/mL). The class given is functional.
In data set [26] the test system is Rattus norvegicus. The data set is described as follows: Induction of growth hormone level in Juvenile Sprague-Dawley rat blood at 0.1 mg/kg, po administered as single dose measured immediately by ELISA method (reference value: 28.5+/-8.7 ng/mL). It is filed as functional.
Data set [27] is described as follows: Clearance in male Sprague-Dawley rat plasma at 1 mg/kg, iv administered as single dose measured after 4 hrs. The class given is ADME, organism-based.
Data set [28] has as its system Rattus norvegicus. The data set is described as follows: Induction of growth hormone level in adult Sprague-Dawley rat blood at 0.5 mg/kg, po administered as single dose measured after 10 mins by ELISA method (reference value: 13.7+/-7.2 ng/mL). It is filed as functional.
The subject of data set [29] is Rattus norvegicus. The data set is described as follows: Induction of growth hormone level in Juvenile Sprague-Dawley rat blood at 0.1 mg/kg, po administered as single dose measured after 40 mins by ELISA method (reference value: 40.1+/-11.0 ng/mL). It is filed as functional.
Data set [30] deals with Growth hormone secretagogue receptor type 1 (Rattus norvegicus) (UniProt O08725). The data set is described as follows: Agonist activity at rat GHSR expressed in CHO cells at maximum concentration incubated for 60 min by FLIPR assay relative to control. It is filed as functional, cell-based. Conditions: filed as agonist.
Sequence of Growth hormone secretagogue receptor type 1 (Rattus norvegicus) (O08725 whole entry): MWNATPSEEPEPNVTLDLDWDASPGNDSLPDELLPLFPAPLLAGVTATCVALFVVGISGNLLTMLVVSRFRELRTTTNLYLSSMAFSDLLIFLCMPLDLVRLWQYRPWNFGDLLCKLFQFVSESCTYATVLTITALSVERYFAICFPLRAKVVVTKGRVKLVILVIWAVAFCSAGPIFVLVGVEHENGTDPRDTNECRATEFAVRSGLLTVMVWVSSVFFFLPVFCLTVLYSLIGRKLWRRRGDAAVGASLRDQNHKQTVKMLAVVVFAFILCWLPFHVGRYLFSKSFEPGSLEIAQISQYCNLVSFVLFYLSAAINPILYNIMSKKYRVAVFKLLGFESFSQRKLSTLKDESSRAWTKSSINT
The subject of data set [31] is CHO. The data set is described as follows: Agonist activity at dog GHSR expressed in CHO cells at maximum concentration incubated for 60 min by FLIPR assay relative to control. It is filed as cell-based. Conditions: Canis lupus familiaris, filed as agonist.
For data set [32], the system named is Rattus norvegicus. The data set is described as follows: Induction of growth hormone level in adult Sprague-Dawley rat blood at 0.5 mg/kg, po administered as single dose measured immediately by ELISA method (reference value: 12.6+/-4.4 ng/mL). It is filed as functional.
Data set [33] in a line: Elimination half life in male Sprague-Dawley rat at 2 mg/kg, po administered as single dose measured after 4 hrs. The class given is ADME, organism-based. Particulars: in vivo, read-out: beta t1/2 (converted).
In data set [34] the test system is Rattus norvegicus. The data set is described as follows: Induction of growth hormone level in Juvenile Sprague-Dawley rat blood at 0.1 mg/kg, po administered as single dose measured after 2 hrs by ELISA method (reference value: 26.5+/-7.3 ng/mL). The class given is functional.
The subject of data set [35] is CHO. Put plainly: Agonist activity at monkey GHSR expressed in CHO cells at maximum concentration incubated for 60 min by FLIPR assay relative to control. It is filed as cell-based. Particulars: Macaca mulatta, filed as agonist.
A short description of data set [36]: Agonist activity at human GHSR expressed in CHO cells incubated for 60 min by FLIPR assay. It is filed as cell-based. Particulars: 1 h.
Data set [37] is described as follows: Tmax in male Sprague-Dawley rat at 2 mg/kg, po administered as single dose measured after 4 hrs. It is filed as ADME, organism-based. Particulars: in vivo.
A short description of data set [38]: Elimination half life in male Sprague-Dawley rat at 1 mg/kg, iv administered as single dose measured after 4 hrs. The class given is ADME, organism-based. Conditions: in vivo, read-out: beta t1/2 (converted).
In data set [39] the target is Growth hormone secretagogue receptor type 1 (Rattus norvegicus, UniProt O08725). The data set is described as follows: Agonist activity at rat GHSR expressed in CHO cells incubated for 60 min by FLIPR assay. It is filed as functional, cell-based.
Sequence of Growth hormone secretagogue receptor type 1 (O08725 whole entry): as above
The test system of data set [40] is Rattus norvegicus. Put plainly: Induction of growth hormone level in Juvenile Sprague-Dawley rat blood by measuring AUC(0 to 40 mins) at 0.1 mg/kg, po administered as single dose by ELISA method (reference value: 20.2+/-4.3 ng/mL). The class given is functional, organism-based. Particulars: time 4.0 hrs.
The subject of data set [41] is Rattus norvegicus. Put plainly: Induction of growth hormone level in Juvenile Sprague-Dawley rat blood at 0.1 mg/kg, po administered as single dose measured after 1 hr by ELISA method (reference value: 45.2+/-12.5 ng/mL). It is filed as functional.
The nature of data set [42]: Agonist activity at dog GHSR expressed in CHO cells incubated for 60 min by FLIPR assay. The class given is cell-based. Particulars: 1 h.

As for `CC(C)(N)C(=O)N[C@H](COCc1ccccc1)C(=O)N1CCC2(CC1)CN(S(C)(=O)=O)c1ccccc12` [IBUTAMOREN], the Activity in the data set with Rattus norvegicus [1] came out at 15.4 ng/mL; in the data set with Rattus norvegicus [2], 25 ng/mL; with Rattus norvegicus [3] it was 76.2 ng/mL; in the data set with Rattus norvegicus [6] it was 290.9 ng/mL; in the data set on Rattus norvegicus [7] it was 71.3 ng/mL; with Rattus norvegicus [8], 61.3 ng/mL. In addition, the Activity in the data set on Rattus norvegicus [9] was determined as 133.9 ng/mL; in the data set on Rattus norvegicus [10], 58.1 ng/mL; with Rattus norvegicus [11], 227.8 ng/mL; with Rattus norvegicus [12], 52.4 ng/mL; in the data set with Rattus norvegicus [13], 76.3 ng/mL. Further, the AUC was determined as 123 ng·h/mL with Rattus norvegicus [4] and 45.6 ng·h/mL in the data set with Rattus norvegicus [5].

`CC(C)(N)C(=O)N[C@H](COCc1ccccc1)C(=O)N1CCC2=NN(C3CC3)C(=O)[C@]2(Cc2ccccn2)C1`: the Activity worked out at 61.1 ng/mL in the data set on Rattus norvegicus [14]; 81.8 ng/mL with Rattus norvegicus [15]; 41.9 ng/mL in the data set with Rattus norvegicus [17]; 123% with CHO [19]; 220.5 ng/mL in the data set with Rattus norvegicus [23]; 168.5 ng/mL in the data set with Rattus norvegicus [25]. Also, the Activity with Rattus norvegicus [26] amounted to 65.8 ng/mL; in the data set on Rattus norvegicus [28], 178.4 ng/mL; in the data set with Rattus norvegicus [29], 91.8 ng/mL; in data set [30], 114%; in the data set on CHO [31] it was 87.4%; in the data set with Rattus norvegicus [32], 17.2 ng/mL. The results for the Activity in the data set on Rattus norvegicus [34], with CHO [35] and in the data set with Rattus norvegicus [41] were 34.5 ng/mL, 104% and 54.5 ng/mL, respectively. In data set [16], this compound gave a Cmax of 139 ng/mL. Moreover, the AUC at 4 h in [18] is 186 ng·h/mL. In addition, the EC50 in data set [20] stood at 0.068 nM; in data set [36] it was 0.8 nM; in data set [39], 0.021 nM; in data set [42] it was 0.092 nM. The compound also registered a Vd in data set [21] of 3.3 L/kg. The same compound registered a bioavailability in [22] of 26.2%. The AUC in the data set on Rattus norvegicus [24] worked out at 58.6 ng·h/mL; in the data set on Rattus norvegicus [40], 104 ng·h/mL. This compound gave a clearance in data set [27] of 48 mL/min/kg. Further, the half-life is 72.6 min in data set [33] and 48 min in data set [38]. Further, in data set [37], the Tmax was 15 min.

The record behind these values is ChEMBL document CHEMBL6103654, “Design, Biological Characterization, and Discovery of Capromorelin Derivatives as Oral Growth Hormone Secretagogue Receptor Type 1a Agonist for the Treatment of Growth Hormone Deficiency” (J Med Chem, 2025).
